The supplement of paper PMC8671470

Experiments:
Assay in all cases: cell viability (% survival relative to DMSO control, bortezomib = 0%); higher = less cytotoxic
Conditions in all cases: 72 h
[1] = tested on: HEL
Outline: (§1)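 Percent survival figures are means of duplicate wells. They were obtained by CellTiter-Glo luminescence after 10 AML and 5 CML cell lines spent 72 h at 37 °C with 5% CO2 in 384-well plates with compounds at 1, 10, 100, 1000 or 10000 nM. Vehicle was set to 100% and a 10 µM positive control to 0%.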

[2] = tested on: BV-173
Outline: as §1

[3] = tested on: SHI-1
Outline: as §1

[4] = tested on: KG-1
Outline: as §1

| SMILES | cell viability ([1]; 1 nM) | cell viability ([1]; 10 nM) | cell viability ([1]; 100 nM) | cell viability ([1]; 1000 nM) | cell viability ([1]; 10000 nM) | cell viability ([2]; 1 nM) | cell viability ([2]; 10 nM) | cell viability ([2]; 100 nM) | cell viability ([2]; 1000 nM) | cell viability ([2]; 10000 nM) | cell viability ([3]; 1 nM) | cell viability ([3]; 10 nM) | cell viability ([3]; 100 nM) | cell viability ([3]; 1000 nM) | cell viability ([3]; 10000 nM) | cell viability ([4]; 1 nM) | cell viability ([4]; 10 nM) | cell viability ([4]; 100 nM) | cell viability ([4]; 1000 nM) | cell viability ([4]; 10000 nM) |
| --- | --- | --- | --- | --- | --- | --- | --- | --- | --- | --- | --- | --- | --- | --- | --- | --- | --- | --- | --- | --- |
| c1ccc2c(c1)OCC(=C1NCCN1)O2 [Idazoxan] | 96.4% | 112% | 85.6% | 95.1% | 90.4% | 87.3% | 108% | 80.7% | 89.3% | 73.2% | 105% | 103% | 89.8% | 101% | 95.1% | 104% | 112% | 93.6% | 96.4% | 85.9% |
| CCOC(=O)[C@@]1(CCCCCCOc2ccc(Cl)cc2)CO1 [Etomoxir] | 105% | 99.6% | 105% | 93.3% | 84.5% | 94.8% | 105% | 88.8% | 64.8% | 57.8% | 107% | 108% | 110% | 105% | 104% | 94.3% | 99.8% | 112% | 94.5% | 91.1% |
| CC(C)C[C@H](NC(=O)[C@@H](O)[C@H](N)Cc1ccccc1)C(=O)O [Ubenimex] | 107% | 106% |  | 95.4% | 106% | 97.5% | 110% | 90.8% | 78.9% | 99.9% | 99.4% | 104% | 93.2% | 80.5% | 91.3% | 111% | 105% | 98.9% | 92.2% | 88.9% |
| Cl.OC[C@H]1NC[C@@H](O)[C@@H](O)[C@@H]1O [1-Deoxymannojirimycin hydrochloride] | 102% | 83.2% | 112% | 119% | 86.1% | 111% | 83.1% | 96.9% | 103% | 102% | 105% | 96.3% | 98.7% | 110% | 89.5% | 105% | 92.3% | 90.6% | 112% | 94.1% |
| O=C(O)CCc1ccc(NCc2cccc(Oc3ccccc3)c2)cc1 [GW9508] | 112% | 105% | 101% | 109% | 104% | 92.9% | 112% | 97.1% | 124% | 135% | 102% | 99.4% | 120% | 97.8% | 107% | 90.6% | 101% | 96.8% | 108% | 107% |
| Clc1ccc2c(c1Cl)CNCC2 | 100% | 111% | 90.9% | 107% | 82.4% | 95% | 95.9% | 103% | 107% | 83.6% | 116% | 122% | 110% | 112% | 96.1% | 94.3% | 98.7% | 98.7% | 101% | 71.9% |
| C[C@]12O[C@H](C[C@]1(O)CO)n1c3ccccc3c3c4c(c5c6ccccc6n2c5c31)CNC4=O [Lestaurtinib] | 95.5% | 90.4% | 33.2% | 19.1% | 4.54% | 93.9% | 65.2% | 28.2% | 22.5% | -0.238% | 107% | 97.9% | 37.1% | 19.5% | 0.00197% | 98.3% | 69.3% | 28% | 10.3% | 6.14% |
| O=c1c2ccccc2[se]n1-c1ccccc1 [Ebselen] | 102% | 97.3% | 106% | 96.5% | 81.8% | 90.5% | 101% | 84.4% | 106% | 83.8% | 107% | 96.5% | 106% | 92.6% | 88.6% | 98.2% | 89.7% | 105% | 80.3% | 75.4% |
| Oc1cc(Cl)ccc1Oc1ccc(Cl)cc1Cl [Triclosan] | 118% | 110% | 86.3% | 105% | 108% | 98% | 120% | 107% | 98.4% | 105% | 105% | 96% | 98.3% | 101% | 103% | 111% | 89.3% | 98.3% | 109% | 143% |
| Clc1ccc(COC(Cn2ccnc2)c2ccc(Cl)cc2Cl)cc1 (centres undefined) [Econazole] | 106% | 90.4% | 99.1% | 99% | 77.3% | 114% | 92.6% | 84.2% | 70.1% | 43.1% | 112% | 91% | 98.8% | 87.2% | 62.1% | 97.4% | 95.3% | 101% | 86% | 52.2% |
| CCN(CC)CCN(Cc1ccc(-c2ccc(C(F)(F)F)cc2)cc1)C(=O)Cn1c(SCc2ccc(F)cc2)nc(=O)c2c1CCC2 [Darapladib] | 99.5% | 103% | 105% | 91.1% | -0.527% | 100% | 88.7% | 94.3% | 79.1% | -0.184% | 107% | 107% | 97.4% | 90.6% | -0.412% | 104% | 108% | 93.6% | 87.8% | 0.0114% |
| Cc1noc2c1-c1ccccc1C(c1ccc(Cl)cc1)=N[C@H]2CC(N)=O [CPI-0610] | 103% | 98.5% | 114% | 74.5% | 18.5% | 92.3% | 87.8% | 83.4% | 33.5% | 10.9% | 105% | 94.5% | 88.8% | 44.4% | 21.8% | 100% | 93.9% | 62.6% | 21.5% | 12.7% |
| COc1c(C)c2c(c(O)c1C/C=C(\C)CCC(=O)O)C(=O)OC2 [Mycophenolic acid] | 94.5% | 108% | 104% | 51.7% | 3.56% | 104% | 98.8% | 115% | 29.9% | -0.741% | 105% | 104% | 92% | 77.2% | 14.4% | 101% | 104% | 94.5% | 70.6% | 18.5% |
| CN(C)c1nc(O)c2[nH]cnc2n1 [2-Dimethylamino-6-hydroxypurine] | 105% | 85.3% | 114% | 106% | 84.8% | 104% | 93% | 93.5% | 121% | 93.9% | 104% | 90.8% | 94.8% | 99.9% | 98.2% | 106% | 94.3% | 92.7% | 96.7% | 85.8% |
| O=C1Nc2ccccc2/C1=C\NCCc1ccc(O)c(O)c1 [AC1NZZMF] | 101% | 99.5% | 104% | 112% | 96.9% | 99.7% | 103% | 104% | 94.1% | 60.9% | 88.8% | 108% | 89% | 103% | 90.8% | 112% | 106% | 104% | 95.7% | 78.7% |
| CCCc1nn(C)c2c(O)nc(-c3cc(S(=O)(=O)N4CCN(C)CC4)ccc3OCC)nc12 [Sildenafil] | 96.8% | 115% | 100% | 108% | 122% | 87.4% | 106% | 94.4% | 109% | 92.1% | 103% | 95% | 104% | 111% | 114% | 95.9% | 97% | 95.7% | 105% | 108% |
| CCOc1ccc(Cc2cc([C@@H]3O[C@H](CO)[C@@H](O)[C@H](O)[C@H]3O)ccc2Cl)cc1 [Dapagliflozin] | 99.9% | 102% | 75.6% | 97.7% | 122% | 74.5% | 106% | 87% | 98.2% | 82% | 99.4% | 114% | 85.2% | 91.1% | 107% | 95.5% | 102% | 83.6% | 101% | 91.8% |
| CC(Cc1ccc(O)c(O)c1)C(C)Cc1ccc(O)c(O)c1 (centres undefined) [Masoprocol] | 114% | 106% | 137% | 114% | 79.8% | 104% | 88.1% | 101% | 104% | 5.25% | 97.1% | 96.2% | 118% | 93.3% | 70.1% | 99% | 109% | 108% | 94.8% | 48.2% |
| O=P(O)(O)C(O)(Cn1ccnc1)P(=O)(O)O [Zoledronic acid] | 90.6% | 92.7% | 101% | 94.9% | 99.3% | 101% | 109% | 88.8% | 97% | 99% | 108% | 116% | 102% | 100% | 104% | 99.3% | 106% | 111% | 103% | 108% |
| Cc1ccc(S(=O)(=O)NC2c3ccccc3Oc3ccccc32)cc1 [AH-7614] | 107% | 96.9% | 103% | 107% | 98.9% | 87.1% | 91.2% | 102% | 98.4% | 104% | 105% | 110% | 105% | 97.1% | 85.5% | 100% | 95.9% | 102% | 95.4% | 104% |
| O=C(O)C(S)=Cc1c[nH]c2ccc(F)cc12 | 102% | 103% | 95.4% | 94% | 101% | 97.4% | 98.1% | 85.1% | 97.7% | 88% | 103% | 97.6% | 104% | 102% | 88.5% | 101% | 95.1% | 106% | 101% | 66.3% |
| NC(=O)c1ncn([C@@H]2O[C@H](CO)[C@@H](O)[C@H]2O)n1 [Ribavirin] | 92.5% | 104% | 111% | 113% | 112% | 93.7% | 106% | 112% | 101% | 91.4% | 105% | 112% | 111% | 111% | 111% | 98.9% | 110% | 96.8% | 95.2% | 98.1% |
| C[C@]12CC[C@H](O)CC1=CC[C@@H]1[C@@H]2CC[C@]2(C)C(c3cccnc3)=CC[C@@H]12 [Abiraterone] | 113% | 109% | 110% | 112% | 111% | 91.8% | 96.8% | 93.5% | 116% | 108% | 119% | 108% | 106% | 108% | 112% | 115% | 101% | 94.3% | 101% | 91.8% |
| C[C@H]1O[C@@H](O[C@H]2[C@@H](O)C[C@H](O[C@H]3[C@@H](O)C[C@H](O[C@H]4CC[C@@]5(C)[C@H](CC[C@@H]6[C@@H]5C[C@@H](O)[C@]5(C)[C@@H](C7=CC(=O)OC7)CC[C@]65O)C4)O[C@@H]3C)O[C@@H]2C)C[C@H](O)[C@@H]1O [Digoxin] | 97.3% | 92.9% | 49% | -0.296% | -0.0735% | 92.3% | 106% | 3.24% | -0.0612% | -0.063% | 115% | 94.9% | 17.8% | 0.649% | 0.63% | 92% | 108% | 27.9% | 0.685% | -0.0339% |
